Results reported in US20120165304A1, “6,7,8,9-Tetrahydro-5H-1,4,7,10a-tetraaza-cyclohept[f]indene derivatives, pharmaceutical compositions containing these compounds, their use and processes for preparing them” (BOEHRINGER INGELHEIM INTERNATIONAL GMBH, priority 2008, published 2012).

What follows are molecules tested against human 5-HT2C receptor (Homo sapiens, UniProt P28335, I156V/I160V/N158S) (assay: cell-based).
Sequence of human 5-HT2C receptor (P28335 33-458 I156V/N158S/I160V limits assumed): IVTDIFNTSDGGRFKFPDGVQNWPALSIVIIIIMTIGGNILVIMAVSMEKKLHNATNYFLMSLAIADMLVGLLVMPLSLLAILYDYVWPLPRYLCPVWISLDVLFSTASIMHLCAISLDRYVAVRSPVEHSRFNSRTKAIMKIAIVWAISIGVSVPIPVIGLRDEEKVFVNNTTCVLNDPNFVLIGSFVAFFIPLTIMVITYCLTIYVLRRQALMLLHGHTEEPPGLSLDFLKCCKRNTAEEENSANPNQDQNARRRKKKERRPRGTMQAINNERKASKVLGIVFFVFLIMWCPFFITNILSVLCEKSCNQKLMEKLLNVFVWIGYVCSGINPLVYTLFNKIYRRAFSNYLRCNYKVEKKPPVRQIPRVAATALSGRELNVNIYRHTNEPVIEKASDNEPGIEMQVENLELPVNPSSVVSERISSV

Structure (SMILES) | EC50
O=C(C1CN(c2c3c(nc4ccnn24)CCNCC3)C1)N1CCC(c2ccccc2)C1 (stereo not drawn) [Example 31.98] | 45 nM
CC1CN(C(=O)C2CN(c3c4c(nc5ccnn35)CCNCC4)C2)CC(C)N1C (stereo not drawn) [Example 37.4] | 4 nM
CN1CCc2nc3ccnn3c(N3CC(C(=O)N4CCNCC4)C3)c2CC1 [Example 36.57] | 287 nM
CCN1CCCC1CNC(=O)C1CN(c2c3c(nc4ccnn24)CCN(C)CC3)C1 (stereo not drawn) [Example 36.4] | 252 nM
CC(C)(C)N1CCC2(CCN(C(=O)C3CN(c4c5c(nc6ccnn46)CCNCC5)C3)CC2)C1=O [Example 31.150] | 240 nM
Fc1ccccc1OC1CN(c2c3c(nc4ccnn24)CCNCC3)C1 [Example 1.8] | 5 nM
O=C(C1CN(c2c3c(nc4c(Br)cnn24)CCNCC3)C1)N1CCC2(CCCCC2)C1 [Example 31.134] | 117 nM
O=C(C1CN(c2c3c(nc4ccnn24)CCNCC3)C1)N1CCC2CC2(c2ccccc2)C1 (stereo not drawn) [Example 31.233] | 106 nM
Cn1c(C2CN(c3c4c(nc5ccnn35)CCNCC4)C2)nc2ccc(F)cc21 [Example 34.4] | 24 nM
